In patent US9139811B2, “Composition for suspension culturing of stem cells” (SEOUL NATIONAL UNIVERSITY HOSPITAL, priority 2011, dated 2015):

Key:
[1] = test system: Human mesenchymal stem cells (BM-MSC); assay: Suspension culture of human mesenchymal stem cells, trypan blue staining and cell counting; format: cell-based; conditions: for cell aggregation / apoptosis of non-aggregated single cells: 24 hours of culture, FIG. 2; for apoptosis of non-aggregated single cells: trypan blue staining
Protocol: Human mesenchymal stem cells (Lonza, Switzerland) were cultured in 10% FBS-containing α-MEM medium such that no contact inhibition occurred. […] Then, the cells were treated with 0.25% trypsin/EDTA and allowed to stand in a CO2 incubator at 37° C. for 30 seconds. The cells that dropped into the tube were collected, and the cells remaining in the dish were completely collected with 10% FBS-containing α-MEM, and the collected cells were centrifuged at 1500 rpm for 5 minutes. The supernatant medium was removed by suction, and the precipitated cells were suspended in 5 ml of EB medium (80% DMEM/F12 80%+20% serum replacement) and then centrifuged at 1500 rpm for 5 minutes. Then, the cells were suspended in 10 ml of medium (containing or not containing 20 μM Y27632) in a 100 Φ Petri dish at a density of 2.0×10^6 cells. After 24 hours, the aggregated cells were stained with trypan blue, and then counted with an automated cell counter (Invitrogen).

[2] = test system: BCL-XL; assay: Western blotting of BCL-XL expression in suspension-cultured cells; format: cell-based, human; conditions: Y27632-treated vs control (naive) cells, FIG. 3
Protocol: (§1) In order to measure a change in the expression of an anti-apoptosis factor in a cell sample, the expression level of BCL-XL was measured at the protein level. In addition, the cells were collected after suspension culture for 6 hours, and the degree of phosphorylation of ERK which is involved in the activity of the cells was evaluated. Specifically, the cells were lysed with a reducing agent [Lysis PreMix (4° C. stock)+NaF ([…], ×100)+orthovanadate (200 mM, ×200)+proteinase inhibitor cocktail (1 tablet/10 ml)], and then electrophoresed on SDS-polyacrylamide gel. Then, the cells were transferred to a PVDF transfer membrane (Millipore), after which a change in the expression of the protein was examined by a primary antigen-antibody reaction using BCL-xl (Santa Cruz Biotechnology) and a secondary antigen-antibody reaction using anti-rabbit IgG and anti-mouse IgG.

[3] = test system: ERK (extracellular signal-regulated kinase); assay: Western blotting of ERK phosphorylation in suspension-cultured cells; format: cell-based, human; conditions: suspension culture for 6 hours, Y27632-treated vs control (naive) cells, FIG. 4
Protocol: as §1

[4] = test system: HGF (hepatocyte growth factor); assay: HGF ELISA of culture supernatant; format: cell-based, human; conditions: vs untreated control cells and EDTA-treated control cells, FIG. 5
From the text: (§2) In vivo conditions in which treatment of cells is required are mostly ischemic anoxic anaerobic conditions in which the cells are injured or broken, and one of major factors in the conditions is HGF (hepatocyte growth factor). Thus, in order to examine the expression level of the hepatocyte growth factor HGF, the supernatant was collected from the cell sample and analyzed by ELISA (enzyme-linked immunosorbent assay) using a HGF-specific antibody according to the manufacturer's protocol.

[5] = test system: Human mesenchymal stem cells; assay: Suspension culture of human mesenchymal stem cells under anoxic anaerobic condition and cell counting; format: cell-based; conditions: for number of dead cells / number of viable cells / total number of cells / viability: anaerobic condition, 20 μM Y27632
Protocol: Human mesenchymal stem cells were cultured in 10% FBS-containing α-MEM medium such that no contact inhibition occurred. […] Then, the cells were treated with 0.25% trypsin/EDTA and allowed to stand in a CO2 incubator at 37° C. for 30 seconds. The cells that dropped into the tube were collected, and the cells remaining in the dish were completely collected with 10% FBS-containing α-MEM, and the collected cells were centrifuged at 2000 rpm for 5 minutes. The supernatant medium was removed by suction, and the precipitated cells were suspended in 5 ml of EB medium (80% DMEM/F12 80%+20% serum replacement) and then centrifuged at 1500 rpm for 5 minutes. Then, the cells were suspended in 10 ml of medium (containing or not containing 20 μM Y27632) in a 100 0 Petri dish at a density of 2.0×10^6 cells. Then, the cells were placed in an anoxic pack (BD Science) to induce an anoxic anaerobic condition. […]

[6] = test system: HGF (hepatocyte growth factor); assay: Suspension culture of single cells using E-cadherin blocker: HGF expression; format: cell-based, human; conditions: aggregation inhibited with E-cadherin blocking antibody, Y-27632 for 24 hours, FIG. 9
From the text: as §2
In order to use E-cadherin to induce single-cell culture during suspension culture, the cells were treated with an E-cadherin blocker to inhibit the induction of cell aggregation during suspension culture. Specifically, human mesenchymal stem cells were cultured in 10% FBS-containing α-MEM medium such that no contact inhibition occurred. When a confluence of about 80% was reached, the medium was removed by suction for cell counting, and the cells were washed with PBS (calcium-free and magnesium-free). Then, the cells were treated with 0.25% trypsin/EDTA and allowed to stand in a CO2 incubator at 37° C. for 30 seconds. The cells that dropped into the tube were collected, and the cells remaining in the dish were completely collected with 10% FBS-containing α-MEM, and the collected cells were centrifuged at 1500 rpm for 5 minutes. […]

[7] = 20 μM Y27632, suspension culture 24 hours, trypan blue

Row | SMILES | total number of cells ([1]; 20 μM Y27632, suspension culture 24 hours) | number of dead cells [1, 7] | number of viable cells [1, 7] | viability [1, 7] [%] | cell aggregation [1] | apoptosis of non-aggregated single cells [1] | expression of the anti-apoptosis factor BCL-XL [2] | phosphorylation of ERK [3] | expression level of HGF [4] | number of dead cells ([5]; 6 hours of culture) | number of viable cells ([5]; 6 hours of culture) | total number of cells ([5]; 6 hours of culture) | viability ([5]; 6 hours of culture) [%] | number of dead cells ([5]; 24 hours of culture) | number of viable cells ([5]; 24 hours of culture) | total number of cells ([5]; 24 hours of culture) | viability ([5]; 24 hours of culture) [%] | apoptosis of single cells ([5]; anoxic anaerobic condition, FIG. 7) | HGF efficiency (expression level of HGF) [6]
1 | C[C@@H](N)[C@H]1CC[C@H](C(=O)Nc2ccncc2)CC1.Cl.Cl (relative stereo) [Y27632, trans-4-[(1R)-1-Aminoethyl]-N-4-pyridinyl-cyclohexanecarboxamide, 2HCl] | 1.8×10^6 | 0.54×10^6 | 1.26×10^6 | 70 | further increased | prevented | significantly increased | significantly increased | significantly higher | 2.4×10^5 | 1.2×10^6 | 1.6×10^6 | 84 | 1.6×10^5 | 1.24×10^6 | 1.4×10^6 | 90 | did not undergo apoptosis | increased
2 | O=C(O)CN(CCN(CC(=O)O)CC(=O)O)CC(=O)O [EDTA] | – | – | – | – | no cell aggregation occurred | apoptosis occurred in all the cells | – | – | – | – | – | – | – | – | – | – | – | – | –
